Results taken from patent US12157746B2, “Tetrahydro-1H-pyrazino[2,1-a]isoindolylquinoline compounds for the treatment of autoimmune disease” (F. HOFFMANN-LA ROCHE AG, priority 2018, dated 2024).

Target: T1, human TLR9 (Homo sapiens, UniProt Q9NR96)
T1 sequence (Q9NR96 26-1032): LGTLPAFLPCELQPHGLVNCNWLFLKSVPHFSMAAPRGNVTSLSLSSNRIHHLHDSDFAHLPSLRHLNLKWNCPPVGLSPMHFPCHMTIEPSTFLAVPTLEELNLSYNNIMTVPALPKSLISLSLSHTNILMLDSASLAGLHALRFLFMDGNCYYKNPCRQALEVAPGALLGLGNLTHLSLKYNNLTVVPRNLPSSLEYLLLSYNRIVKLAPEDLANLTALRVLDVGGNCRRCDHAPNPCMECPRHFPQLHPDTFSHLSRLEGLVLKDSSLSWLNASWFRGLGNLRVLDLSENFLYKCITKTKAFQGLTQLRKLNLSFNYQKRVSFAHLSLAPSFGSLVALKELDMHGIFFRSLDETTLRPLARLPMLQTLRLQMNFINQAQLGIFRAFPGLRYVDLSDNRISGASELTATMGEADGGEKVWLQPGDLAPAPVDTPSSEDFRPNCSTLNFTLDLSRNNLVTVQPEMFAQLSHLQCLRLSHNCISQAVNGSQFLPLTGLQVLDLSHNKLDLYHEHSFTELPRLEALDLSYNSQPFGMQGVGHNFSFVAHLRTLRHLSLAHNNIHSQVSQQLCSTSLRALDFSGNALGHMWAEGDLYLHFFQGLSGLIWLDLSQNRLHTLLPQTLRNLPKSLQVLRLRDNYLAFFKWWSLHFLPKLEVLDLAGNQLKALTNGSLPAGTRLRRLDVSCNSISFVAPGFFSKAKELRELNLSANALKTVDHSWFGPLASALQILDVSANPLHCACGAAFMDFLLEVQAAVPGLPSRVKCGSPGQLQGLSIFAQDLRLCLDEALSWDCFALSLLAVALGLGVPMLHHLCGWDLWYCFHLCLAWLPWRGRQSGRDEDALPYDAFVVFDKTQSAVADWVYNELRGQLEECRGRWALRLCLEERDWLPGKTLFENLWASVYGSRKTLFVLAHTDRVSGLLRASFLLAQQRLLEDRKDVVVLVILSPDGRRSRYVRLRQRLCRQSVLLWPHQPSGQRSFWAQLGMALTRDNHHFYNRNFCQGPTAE
Assay: HEK293-Blue-hTLR-9 cells assay
Format: cell-based
Settings: HEK293-Blue-hTLR9 cells, ODN2006 stimulation, 20 hrs, SEAP reporter; read-out: HEK/hTLR9 IC50
Method in brief: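 Antagonist mode in HEK293-Blue hTLR9 reporter cells (SEAP under NF-κB/AP-1 sites), stimulated with ODN2006 added from a 20 uM solution. Serially diluted compound (1% DMSO final) was incubated 20 hrs at 37° C. Supernatant SEAP was developed with QUANTI-Blue for 2 h at 37° C and read at 620˜655 nm.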

SMILES	IC50
C[C@@H]1CN(c2ccc(C#N)c3ncccc23)C[C@@H]2c3ccc(C(=O)N4CCC(C)(N)CC4)cc3CN12 [Example 88, 5-[(4R,10bS)-8-(4-amino-4-methyl-piperidine-1-carbonyl)-4-methyl-3,4,6,10b-tetrahydro-1H-pyrazino[2,1-a]isoindol-2-yl]quinoline-8-carbonitrile]	165 nM
C[C@@H]1CN(c2ccc(C#N)c3ncccc23)C[C@@H]2c3ccc(N4C[C@@H]5CNCCN5C4=O)cc3CN12 [Example 71, 5-[(4R,10bS)-8-[(8aS)-3-oxo-1,5,6,7,8,8a-hexahydroimidazo[1,5-a]pyrazin-2-yl]-4-methyl-3,4,6,10b-tetrahydro-1H-pyrazino[2,1-a]isoindol-2-yl]quinoline-8-carbonitrile]	115 nM
CO[C@H]1CNC[C@@H]1N(C)c1ccc2c(c1)CN1[C@H](C)CN(c3ccc(C#N)c4ncccc34)C[C@H]21 [Example 64, 5-[(4R,10bS)-8-[[(3S,4S)-4-methoxypyrrolidin-3-yl]-methyl-amino]-4-methyl-3,4,6,10b-tetrahydro-1H-pyrazino[2,1-a]isoindol-2-yl]quinoline-8-carbonitrile]	125 nM
C[C@@H]1CN(c2ccc(C#N)c3ncccc23)C[C@@H]2c3cc(F)c(N4CC5(CNC5)C4)cc3CN12 [Example 84, 5-[(4R,10bS)-8-(2,6-diazaspiro[3.3]heptan-2-yl)-9-fluoro-4-methyl-3,4,6,10b-tetrahydro-1H-pyrazino[2,1-a]isoindol-2-yl]quinoline-8-carbonitrile]	186 nM
Cc1ccc(N2C[C@@H](C)N3Cc4cc(N[C@H]5CNC[C@H]5F)ccc4[C@H]3C2)c2nccnc12 [Example 76, (4R,10bS)—N-[(3S,4R)-4-fluoropyrrolidin-3-yl]-4-methyl-2-(8-methylquinoxalin-5-yl)-3,4,6,10b-tetrahydro-1H-pyrazino[2,1-a]isoindol-8-amine]	150 nM
CO[C@@H]1CNC[C@H]1Nc1cc2c(cc1C)[C@H]1CN(c3ccc(C#N)c4ncccc34)C[C@@H](C)N1C2 [Example 63, 5-[(4R,10bS)-8-[[(3R,4R)-4-methoxypyrrolidin-3-yl]amino]-4,9-dimethyl-3,4,6,10b-tetrahydro-1H-pyrazino[2,1-a]isoindol-2-yl]quinoline-8-carbonitrile]	72.7 nM
C[C@@H]1CN(c2ccc(C#N)c3ncccc23)C[C@@H]2c3ccc(N[C@@H]4CNCCOC4)cc3CN12 [Example 56A, 5-[(4R,10bS)-4-methyl-8-[[(6R)-1,4-oxazepan-6-yl]amino]-3,4,6,10b-tetrahydro-1H-pyrazino[2,1-a]isoindol-2-yl]quinoline-8-carbonitrile]	83 nM
C[C@@H]1CN(c2ccc(C#N)c3ncccc23)C[C@@H]2c3ccc(NCC4COCCN4)cc3CN12 (stereo partly drawn) [Example 57, 5-[(4R,10bS)-4-methyl-8-(morpholin-3-ylmethylamino)-3,4,6,10b-tetrahydro-1H-pyrazino[2,1-a]isoindol-2-yl]quinoline-8-carbonitrile]	105 nM
C[C@@H]1CN(c2ccc(C#N)c3ncccc23)C[C@@H]2c3cc(F)c(N4C[C@H](N)[C@@](C)(O)C4)cc3CN12 [Example 83, 5-[(4R,10bS)-8-[(3S,4S)-4-amino-3-hydroxy-3-methyl-pyrrolidin-1-yl]-9-fluoro-4-methyl-3,4,6,10b-tetrahydro-1H-pyrazino[2,1-a]isoindol-2-yl]quinoline-8-carbonitrile]	168 nM
C[C@@H]1CN(c2ccc(C#N)c3ncccc23)C[C@@H]2c3cccc(NCCN4CC[C@H](O)C4)c3CN12 [Example 80, 5-[(4R,10bS)-7-[2-[(3S)-3-hydroxypyrrolidin-1-yl]ethylamino]-4-methyl-3,4,6,10b-tetrahydro-1H-pyrazino[2,1-a]isoindol-2-yl]quinoline-8-carbonitrile]	63.6 nM
C[C@@H]1CN(c2ccc(C#N)c3ncccc23)C[C@@H]2c3ccc(N4C[C@H]5CNCCN5C4=O)cc3CN12 [Example 72, 5-[(4R,10bS)-8-[(8aR)-3-oxo-1,5,6,7,8,8a-hexahydroimidazo[1,5-a]pyrazin-2-yl]-4-methyl-3,4,6,10b-tetrahydro-1H-pyrazino[2,1-a]isoindol-2-yl]quinoline-8-carbonitrile]	108 nM
C[C@@H]1CN(c2ccc(C#N)c3ncccc23)C[C@@H]2c3ccc(OC[C@@H]4C[C@H](F)CN4)cc3CN12 [Example 74, 5-[(4R,10bS)-8-[[(2S,4S)-4-fluoropyrrolidin-2-yl]methoxy]-4-methyl-3,4,6,10b-tetrahydro-1H-pyrazino[2,1-a]isoindol-2-yl]quinoline-8-carbonitrile]	136 nM
C[C@@H]1CN(c2ccc(C#N)c3ncccc23)C[C@@H]2c3cccc(N[C@H]4CNC[C@H]4F)c3CN12 [Example 81, 5-[(4R,10bS)-7-[[(3S,4R)-4-fluoropyrrolidin-3-yl]amino]-4-methyl-3,4,6,10b-tetrahydro-1H-pyrazino[2,1-a]isoindol-2-yl]quinoline-8-carbonitrile]	126 nM
C[C@@H]1CN(c2ccc(C#N)c3ncccc23)C[C@@H]2c3ccc(NC[C@@H]4C[C@H](F)CN4)cc3CN12 [Example 70, 5-[(4R,10bS)-8-[[(2S,4S)-4-fluoropyrrolidin-2-yl]methylamino]-4-methyl-3,4,6,10b-tetrahydro-1H-pyrazino[2,1-a]isoindol-2-yl]quinoline-8-carbonitrile]	74 nM
CO[C@H]1CNCC[C@H]1Nc1ccc2c(c1)CN1[C@H](C)CN(c3ccc(C#N)c4ncccc34)C[C@H]21 [Example 66, 5-[(4R,10bS)-8-[[(3S,4R)-3-methoxy-4-piperidyl]amino]-4-methyl-3,4,6,10b-tetrahydro-1H-pyrazino[2,1-a]isoindol-2-yl]quinoline-8-carbonitrile]	141 nM
C[C@@H]1CN(c2ccc(C#N)c3ncccc23)C[C@@H]2c3ccc(N[C@H]4CNCCOC4)cc3CN12 [Example 56B, 5-[(4R,10bS)-4-methyl-8-[[(6S)-1,4-oxazepan-6-yl]amino]-3,4,6,10b-tetrahydro-1H-pyrazino[2,1-a]isoindol-2-yl]quinoline-8-carbonitrile]	92.1 nM
C[C@@H]1CN(c2ccc(C#N)c3ncccc23)C[C@@H]2c3ccc(NC[C@@H]4CNCCO4)cc3CN12 [Example 58, 5-[(4R,10bS)-4-methyl-8-[[(2S)-morpholin-2-yl]methylamino]-3,4,6,10b-tetrahydro-1H-pyrazino[2,1-a]isoindol-2-yl]quinoline-8-carbonitrile]	84.3 nM
C[C@@H]1CN(c2ccc(C#N)c3ncsc23)C[C@@H]2c3ccc(N[C@H]4CNC[C@H]4F)cc3CN12 [Example 78, 7-[(4R,10bS)-8-[[(3S,4R)-4-fluoropyrrolidin-3-yl]amino]-4-methyl-3,4,6,10b-tetrahydro-1H-pyrazino[2,1-a]isoindol-2-yl]-1,3-benzothiazole-4-carbonitrile]	83.6 nM
[2H]c1ccc2c(N3C[C@@H](C)N4Cc5cc(N6CC7(CNCCO7)C6)ccc5[C@H]4C3)ccc(C#N)c2n1 [Example 90, 5-[(4R,10bS)-4-methyl-8-(5-oxa-2,8-diazaspiro[3.5]nonan-2-yl)-3,4,6,10b-tetrahydro-1H-pyrazino[2,1-a]isoindol-2-yl]-2-deuterio-quinoline-8-carbonitrile]	164 nM
C[C@@H]1CN(c2ccc(C(F)(F)F)c3nccnc23)C[C@@H]2c3ccc(N[C@H]4CNC[C@H]4F)cc3CN12 [Example 77, (4R,10bS)—N-[(3S,4R)-4-fluoropyrrolidin-3-yl]-4-methyl-2-[8-(trifluoromethyl)quinoxalin-5-yl]-3,4,6,10b-tetrahydro-1H-pyrazino[2,1-a]isoindol-8-amine]	141 nM
C[C@@H]1CN(c2ccc(C#N)c3ncccc23)C[C@@H]2c3ccc(NC[C@H]4CNCCO4)cc3CN12 [Example 59, 5-[(4R,10bS)-4-methyl-8-[[(2R)-morpholin-2-yl]methylamino]-3,4,6,10b-tetrahydro-1H-pyrazino[2,1-a]isoindol-2-yl]quinoline-8-carbonitrile]	73.5 nM

Tested on: not listed separately
Assay: Human microsomal stability assay
Format: in vitro ADME
Settings: human liver microsomes 0.5 mg/mL, 37° C., pH 7.4, NADPH regenerating system, 0-30 minutes
Method in brief: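 Human liver microsomes (0.5 mg/mL) with […] compound in 100 mM potassium phosphate, pH 7.4, 37° C; reaction started with NADPH regenerating system after 10 min preincubation. Parent remaining at 0–30 min quantified by LC-MS/MS; clearance binned low (<7.0), medium (7.0-16.2) or high (16.2-23.2) mL/min/kg.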

SMILES	CL (h)
C[C@@H]1CN(c2ccc(C#N)c3ncccc23)C[C@@H]2c3ccc(C(=O)N4CCC(C)(N)CC4)cc3CN12 [Example 88, 5-[(4R,10bS)-8-(4-amino-4-methyl-piperidine-1-carbonyl)-4-methyl-3,4,6,10b-tetrahydro-1H-pyrazino[2,1-a]isoindol-2-yl]quinoline-8-carbonitrile]	6.2 mL/min/kg
